Data from paper PMC4552634, “A New Set of Chemical Starting Points with Plasmodium falciparum Transmission-Blocking Potential for Antimalarial Drug Discovery” (PLoS ONE, 2015).
Like-named read-outs stand apart in the source and are kept apart here.

How the values were obtained:
[1] = test system: P. falciparum asexual stages; conditions: cited from earlier work
[2] = test system: P. falciparum stage V gametocytes; test: Gametocytocidal ATP bioluminescence assay (single point 5 μM and 1 μM, dose-response); type: cell-based, Plasmodium falciparum; conditions: for Ratio IC50 HepG2/IC50 P. falciparum: IC50 HepG2 divided by IC50 P. falciparum gametocytes
Procedure: Purified stage IV-V gametocytes were obtained as previously described [10]. Single point ATP bioluminescence assay and dose–response of positive hits was determined in accordance with the previously published protocol [10].

HepG2 cells = test: Cytotoxicity in HepG2 cells (intracellular ATP, ATPlite, 48 h); type: cell-based, human; conditions: IC50 HepG2 divided by IC50 P. falciparum gametocytes
[3] = as above; type: cell-based, human; conditions: human, HepG2 cells
[4] = test system: P. falciparum stage V gametocytes; test: microbe, parasite or virus in culture; set-up: BacTiter-Glo ATP luminescence viability of purified stage V gametocytes in 384-well plates, per cent inhibition versus DMSO; conditions: Plasmodium falciparum, 48 h, read-out: % Inhibition
[5] = asexual stages, TCAMS data, read-out: IC50 asexual
[6] = Plasmodium falciparum, P. falciparum gametocytes, average, read-out: IC50 Pf Gametocytes average, IC50 (µM) average
[7] = IC50 per ratio column head, unit inferred, read-out: Cytotoxicity in HepG2
[8] = P. falciparum asexual stages, TCAMS data, read-out: IC50 (µM) Pf asexual stages
[9] = sexual stages (gametocytes), dose-response, read-out: IC50 sexual
[10] = IC50 per ratio column head, unit inferred
[11] = Plasmodium falciparum, sexual stages (gametocytes), dose-response, read-out: IC50 sexual
[12] = HepG2, 48 h exposure, intracellular ATP, read-out: IC50 (μM) Cytotoxicity HepG2

SMILES	IC50 [1, 5] [µM]	Ratio IC50 HepG2/IC50 P. falciparum [2]	IC50 [2, 6] [µM]	Ratio IC50 HepG2/IC50 P. falciparum (HepG2 cells)	IC50 at 48 h [3, 7] [µM]	IC50 [1, 8] [µM]	IC50 [2, 9] [µM]	IC50 [3, 10] [nM]	IC50 ([2]; Plasmodium falciparum, gametocytes (GC), value as repeated in the Clusters sheet, read-out: IC50 GC) [µM]	IC50 [2, 11] [µM]	IC50 ([1]; as previously determined for TCAMS, read-out: IC50 (μM) Pf Asexual stages) [µM]	IC50 ([2]; Plasmodium falciparum, P. falciparum gametocytes, dose-response, average, read-out: IC50 Pf Gametocytes average IC50 (µM) average) [µM]	IC50 at 48 h ([3]; read-out: Cytotoxicity in HepG2 IC50 (µM) Malaria DPU) [µM]	inhibition at 5 µM [4] [%]	IC50 at 48 h [3, 12] [µM]
CCCCN(CCCC)CCCCNc1c2ccccc2nc2ccccc12 [TCMDC-137461]	0.148	35	0.55	35	19	–	–	–	–	–	–	–	–	–	–
N=C(N)Nc1nc(-c2ccc(NC(=O)Nc3cccc(-c4csc(NC(=N)N)n4)c3)cc2)cs1 [TCMDC-139559]	1.01	>17	1.43	>17	> 25	–	–	–	–	–	–	–	–	–	–
COc1cc2c(c(Cl)c1OC)CCN(C(=O)C(F)(F)F)CC2c1ccccc1 (stereo not drawn) [TCMDC-132071]	0.441	>13	1.95	>13	> 25	0.44	–	–	–	–	–	–	–	–	–
N=C(N=C(NCCCCCCNC(=NC(=N)Nc1ccc(Cl)cc1)N1CCCCC1)N1CCCCC1)Nc1ccc(Cl)cc1 [TCMDC-131811]	0.256	61	0.38	61	22.9	–	0.375	–	–	–	–	–	–	–	–
Oc1c(C(Nc2nc3ccccc3s2)c2ccc(OC(F)F)cc2)ccc2cccnc12 (stereo not drawn) [TCMDC-124379]	0.571	55	0.44	55	24.1	–	–	–	–	–	–	–	–	–	–
COc1ccc2nc3cc(Cl)ccc3c(NCCCCCCNc3c4ccc(Cl)cc4nc4ccc(OC)cc34)c2c1 [TCMDC-137503]	0.661	>500	0.05	>500	> 25	–	–	–	–	–	–	–	–	–	–
CCN(CC)C(=NC(=N)NCc1ccc(Cl)cc1)NCCCCCCNC(=NC(=N)NCc1ccc(Cl)cc1)N(CC)CC [TCMDC-131817]	0.231	>32	0.79	>32	> 25	–	–	–	–	–	–	–	–	–	–
c1ccc2c(c1)cc(CNCCCN1CCN(CCCNCc3cc4ccccc4c4ccccc34)CC1)c1ccccc12 [TCMDC-137914]	0.204	12	1.11	12	–	–	–	13700	–	–	–	–	–	–	–
c1cc(C2=N[C@H]3CCCC[C@@H]3N2)ccc1OCCCOc1ccc(C2=N[C@@H]3CCCC[C@H]3N2)cc1 [TCMDC-137803]	0.731	>54	0.47	>54	> 25	–	0.467	–	–	–	–	–	–	–	–
CC(=NNC(=S)NCCc1ccccn1)c1ccccn1 [TCMDC-137895]	0.319	>17	1.49	>17	> 25	0.32	–	–	1.5	1.5	–	–	–	–	–
COc1cc(CCNC(=N)/C=C/c2ccc(Cl)cc2)ccc1Cl [TCMDC-137457]	0.241	50	0.28	50	14	–	–	–	–	–	–	–	–	–	–
CS(=O)(=O)c1cccc(-c2cnc3[nH]cc(-c4cccc(CCN)c4)c3c2)c1 [TCMDC-136307]	1.56	>53	0.47	>53	> 25	1.56	–	–	–	–	–	–	–	–	–
CCN(CC)Cc1cc(Nc2c3ccc(Cl)cc3nc3cccc(OC)c23)ccc1O [TCMDC-139222]	0.033	>25	1	>25	> 25	0.0334	–	–	–	0.995	0.03	–	–	–	–
CCCCN(CCCC)C(=NC(=N)NCc1ccc(Cl)c(Cl)c1)NCCCCCCNC(=NC(=N)NCc1ccc(Cl)c(Cl)c1)N(CCCC)CCCC [TCMDC-131821]	0.399	20	0.62	20	12.4	–	0.615	–	–	–	–	–	–	–	–
Nc1cc(C=Cc2ccc([N+](=O)[O-])o2)nc2ccccc12 [TCMDC-142295]	0.367	58	0.2	59	11.7	0.37	–	–	–	–	–	0.21	12	116	–
CN1c2ccc([N+](=O)[O-])cc2C(C)(C)C12C=Cc1cc(Br)cc([N+](=O)[O-])c1O2 (stereo not drawn) [TCMDC-124178]	0.785	>23	1.09	>23	–	–	1.09	> 25000	–	–	–	–	–	–	–
CCN(CC)C(=NC(=N)NCCCCCCNC(=N)N=C(Nc1ccc(Cl)cc1)N(CC)CC)Nc1ccc(Cl)cc1 [TCMDC-131807]	0.927	>68	0.37	>68	> 25	–	0.365	–	–	–	–	–	–	–	–
CN1CCN(CCCN(Cc2ccc(-c3cccc(CNC4CCCC4)c3)cc2)C(=O)Nc2ccccc2)CC1 [TCMDC-140605]	1.12	81	0.18	81	14.3	–	0.177	–	–	–	–	–	–	–	–
Cc1c(Cn2ncc(N3CCC(N)CC3)c(Cl)c2=O)cccc1NC(=O)Nc1ccc(-c2ccccc2)cc1 [TCMDC-141931]	0.697	12	1.18	12	14.5	–	1.18	–	–	–	–	–	–	–	–
Cc1sc2ncnc(Sc3nnc(N)s3)c2c1C [TCMDC-124542]	0.399	>83	0.3	>83	> 25	0.4	–	–	–	–	–	–	–	–	–
CC1CCCCN1CCCNc1nc(NCc2ccccc2)c2ccccc2n1 (stereo not drawn) [TCMDC-137771]	0.953	143	0.14	143	20.1	0.95	–	–	–	–	–	–	–	–	20
CC(C)CCNC(=N)Nc1ccc(OCCCOc2ccc(NC(=N)NCCC(C)C)cc2)cc1 [TCMDC-137615]	0.2	>86	0.29	>86	> 25	–	–	–	–	–	–	–	–	–	–
CN1CCN(CCCNCc2cccc(-c3ccc(CNCCc4ccccc4)cc3)c2)CC1 [TCMDC-140643]	0.781	44	0.41	44	18.2	–	0.413	–	–	–	–	–	–	–	–
CC(C)CNCc1cccc(-c2cccc(CN(CCN(C)C)C(=O)Nc3ccccc3)c2)c1 [TCMDC-140592]	0.795	24	0.66	24	15.8	–	–	–	–	–	–	–	–	–	–
CC(C)CNCc1cccc(-c2cccc(CNCCCN3CCN(C)CC3)c2)c1 [TCMDC-140483]	1.18	>16	1.56	>16	> 25	–	1.56	–	–	–	–	–	–	–	–
CCOc1ccc2nc3cc(NC(=O)c4ccco4)ccc3c(N)c2c1 [TCMDC-125004]	0.802	56	0.19	56	10.3	0.8	–	–	–	0.185	–	–	–	–	10
Oc1ccc(CCNCCCCCCNCCc2ccc(Cl)c3ccccc23)cc1O [TCMDC-131271]	0.716	25	0.53	25	13.5	–	0.533	–	–	–	–	–	–	–	–
CC(C)(C)c1ccc(CN2CCC(CNC(=O)c3cc(-c4cccc(Cl)c4)cs3)C2)cc1 (stereo not drawn) [TCMDC-134446]	1.16	19	0.61	19	11.3	1.16	–	–	–	0.605	–	–	–	–	11
CC(C)CCNC(=N)Nc1ccc(OCCCCCOc2ccc(NC(=N)NCCC(C)C)cc2)cc1 [TCMDC-137614]	1.08	>49	0.51	>49	> 25	–	0.507	–	–	–	–	–	–	–	–
Cc1cccc2nc(-c3ccc(-c4ccc(CNCc5ccc(CN)cc5)cc4)s3)[nH]c12 [TCMDC-132809]	0.442	28	0.86	28	24	–	0.855	–	–	–	–	–	–	–	–
